“And” between values parts separate entries of the source, which are not always exact repeats. Identical values can stand only once.
Biological target: T1, human P2X4 (Homo sapiens, UniProt Q99571)
T1 sequence (Q99571 1-388): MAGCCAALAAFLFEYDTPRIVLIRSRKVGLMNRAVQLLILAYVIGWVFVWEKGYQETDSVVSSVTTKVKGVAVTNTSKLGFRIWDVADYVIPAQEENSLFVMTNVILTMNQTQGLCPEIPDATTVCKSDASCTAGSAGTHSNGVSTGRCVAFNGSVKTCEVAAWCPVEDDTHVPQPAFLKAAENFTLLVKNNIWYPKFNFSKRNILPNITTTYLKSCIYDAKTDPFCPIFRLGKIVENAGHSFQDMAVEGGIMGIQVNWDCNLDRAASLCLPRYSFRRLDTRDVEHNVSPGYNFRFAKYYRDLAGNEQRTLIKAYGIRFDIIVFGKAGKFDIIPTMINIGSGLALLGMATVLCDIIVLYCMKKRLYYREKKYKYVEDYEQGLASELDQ
Experiment: Human P2X4 HEK Cell FLIPR Assay
Type: cell-based
Conditions: agonist Bz-ATP at EC80; for Emax: HEK293, HEK293 cells, percentage of maximal inhibition, read-out: Human P2X4 HEK Cells (FLIPR Assay) avg Efficacy [%]; for IC50: HEK293 cells, individual values listed where some fall outside detection range
In short: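 HEK293 cells stably expressing human P2X4, Fluo8-AM loaded 30 min at 37° C, then compound 30 min at room temperature (0.5% DMSO, pH 7.4 buffer with 1.8 mM CaCl2). Bz-ATP at its daily-determined EC80 added; calcium fluorescence read over 120 sec; IC50 from peak RFU normalized to agonist control, triplicates.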

SMILES | Emax | IC50
NS(=O)(=O)c1cc(NC(=O)Cc2ccccc2Cl)ccc1-c1ccc(Cl)cc1 [Example 352, 2-(2-Chlorophenyl)-N-(4′-chloro-2-sulfamoylbiphenyl-4-yl)acetamide] | 91% | 54 nM
NS(=O)(=O)c1cc(NC(=O)Cc2cc(Cl)ccc2Cl)ccc1-n1cc(C(F)(F)F)cn1 [Example 136, 2-(2,5-Dichlorophenyl)-N-{3-sulfamoyl-4-[4-(trifluoromethyl)-1H-pyrazol-1-yl]phenyl}-acetamide] | 84% | 211 nM
CN(C)c1nc(-c2ccc(NC(=O)Cc3ccccc3Cl)cc2S(N)(=O)=O)cs1 [Example 495, 2-(2-Chlorophenyl)-N-{4-[2-(dimethylamino)-1,3-thiazol-4-yl]-3-sulfamoylphenyl}acetamide] | 75% | 128 nM
NS(=O)(=O)c1cc(NC(=O)Cc2cccc(F)c2)ccc1-n1cc(C(F)(F)F)cn1 [Example 114, 2-(3-Fluorophenyl)-N-{3-sulfamoyl-4-[4-(trifluoromethyl)-1H-pyrazol-1-yl]phenyl}-acetamide] | 69% | 367 nM
NS(=O)(=O)c1cc(NC(=O)Cc2ccccc2F)ccc1-n1cc(C(F)(F)F)nn1 [Example 413, 2-(2-Fluorophenyl)-N-{3-sulfamoyl-4-[4-(trifluoromethyl)-1H-1,2,3-triazol-1-yl]phenyl}acetamide] | 89% | 74 nM
NS(=O)(=O)c1cc(NC(=O)Cc2ccccc2Cl)ccc1-n1ccc(F)n1 [Example 257, 2-(2-Chlorophenyl)-N-[4-(3-fluoro-1H-pyrazol-1-yl)-3-sulfamoylphenyl]acetamide] | 81% | 51 nM
NS(=O)(=O)c1cc(NC(=O)Cc2ccccc2Cl)ccc1-c1ccc(Cl)nc1 [Example 274, 2-(2-Chlorophenyl)-N-[4-(6-chloropyridin-3-yl)-3-sulfamoylphenyl]acetamide] | 97% | 19 nM
NS(=O)(=O)c1cc(NC(=O)Cc2ccccc2Cl)ccc1-n1cccn1 [Example 544, 2-(2-Chlorophenyl)-N-[4-(1H-pyrazol-1-yl)-3-sulfamoylphenyl]acetamide] | 85% | 1 nM
NS(=O)(=O)c1cc(NC(=O)Cc2ccccc2Cl)ccc1-n1cnc2ccccc21 [Example 32, N-[4-(1H-Benzimidazol-1-yl)-3-sulfamoylphenyl]-2-(2-chlorophenyl)acetamide] | 93% | 139 nM
NS(=O)(=O)c1cc(NC(=O)Cc2ccccc2Cl)ccc1-c1cc(C2CC2)on1 [Example 438, 2-(2-Chlorophenyl)-N-[4-(5-cyclopropyl-1,2-oxazol-3-yl)-3-sulfamoylphenyl]acetamide] | 75% | 18 nM
NS(=O)(=O)c1cc(NC(=O)Cc2c(Cl)cccc2C(F)(F)F)ccc1-n1cc(F)cn1 [Example 169, 2-[2-Chloro-6-(trifluoromethyl)phenyl]-N-[4-(4-fluoro-1H-pyrazol-1-yl)-3-sulfamoyl-phenyl]acetamide] | 86% | 85 nM
NS(=O)(=O)c1cc(NC(=O)Cc2ccccc2F)ccc1-c1cncc(F)c1 [Example 362, 2-(2-Fluorophenyl)-N-[4-(5-fluoropyridin-3-yl)-3-sulfamoylphenyl]acetamide] | 78% | 102 nM
NS(=O)(=O)c1cc(NC(=O)Cc2ccc(Cl)cc2Cl)ccc1-n1ncc(C(F)(F)F)n1 [Example 416, 2-(2,4-Dichlorophenyl)-N-{3-sulfamoyl-4-[4-(trifluoromethyl)-2H-1,2,3-triazol-2-yl]phenyl}acetamide] | 51% | 8.3 µM and 17.8 µM and > 25 µM (2×)
NS(=O)(=O)c1cc(NC(=O)Cc2ccccc2Cl)ccc1-n1cc(-c2cccnc2)cn1 [Example 403, 2-(2-Chlorophenyl)-N-{4-[4-(pyridin-3-yl)-1H-pyrazol-1-yl]-3-sulfamoylphenyl}acetamide] | 88% | 16 nM

Reference: US11524938B2, “Aromatic sulfonamide derivatives” (Bayer Pharma Aktiengesellschaft, priority 2016, dated 2022)
